# According to patent US20260184708A1, “PYRIDAZINONES AND METHODS OF USE THEREOF” (GFB (ABC), LLC, priority 2017, published 2026):
# Tests used:
# [1] = molecular target: T1, TRPC5 (Homo sapiens, UniProt Q9UL62); assay: TRPC5 Fluorescence Assay - FLIPR format (HEK-TREx hTRPC5, Riluzole stimulation); format: cell-based
# T1 construct: expressed in transfected cells; host or cells: HEK 293
# T1 sequence (Q9UL62 1-973): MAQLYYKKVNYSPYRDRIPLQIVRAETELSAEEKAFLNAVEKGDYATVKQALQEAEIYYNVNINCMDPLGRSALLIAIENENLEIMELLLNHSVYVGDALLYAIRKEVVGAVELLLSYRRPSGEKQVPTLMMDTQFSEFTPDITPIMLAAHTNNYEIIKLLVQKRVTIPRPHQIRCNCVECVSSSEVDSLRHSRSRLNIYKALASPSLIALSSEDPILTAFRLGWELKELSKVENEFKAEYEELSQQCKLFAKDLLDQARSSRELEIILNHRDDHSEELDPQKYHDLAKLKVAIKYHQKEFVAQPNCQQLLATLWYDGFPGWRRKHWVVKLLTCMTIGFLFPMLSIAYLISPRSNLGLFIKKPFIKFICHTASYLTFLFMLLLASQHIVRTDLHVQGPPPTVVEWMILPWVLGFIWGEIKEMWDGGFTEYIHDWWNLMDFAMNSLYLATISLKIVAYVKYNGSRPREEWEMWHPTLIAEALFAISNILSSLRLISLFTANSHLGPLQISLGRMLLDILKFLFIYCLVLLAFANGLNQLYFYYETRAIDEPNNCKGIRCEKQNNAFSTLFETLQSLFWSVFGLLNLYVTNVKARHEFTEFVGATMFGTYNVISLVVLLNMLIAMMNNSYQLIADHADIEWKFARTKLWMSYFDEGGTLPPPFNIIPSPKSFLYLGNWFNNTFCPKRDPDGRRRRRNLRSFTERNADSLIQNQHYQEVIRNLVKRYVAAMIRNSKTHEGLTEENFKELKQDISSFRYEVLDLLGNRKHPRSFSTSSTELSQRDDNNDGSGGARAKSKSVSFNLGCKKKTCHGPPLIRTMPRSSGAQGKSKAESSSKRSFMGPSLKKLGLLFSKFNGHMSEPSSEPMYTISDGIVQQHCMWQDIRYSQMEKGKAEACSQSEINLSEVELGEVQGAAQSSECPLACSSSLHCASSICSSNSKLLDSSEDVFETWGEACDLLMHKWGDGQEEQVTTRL
# Experimental: • Cell line: ICLN-001633 • Base Cell: HEK • Channel: TRPC5 • Species: Human • Thaw ID: multiple • Passage: multiple
# FLIPR Assay Buffer (Earls Balanced Salt Solution (EBSS) was prepared as follows:
# Test Agent Preparation: Compounds were made up to, or supplied as, a 10 mM stock solution generally using DMSO as the vehicle. 10-point dose response curves were generated using the Echo-550 acoustic dispenser. Compound source plates were made by serially diluting compound stocks to create 10 mM, 1 mM, and 0.1 mM solutions in DMSO into Echo certified LDV plates. The Echo then serially spotted 100% DMSO stock solutions into source dose response plates to generate a 4-fold dilution scheme. 100% DMSO was added to the spotted dose response plates to bring the final volume to 5 μl. […] of the dose response stock plate was then spotted into pre-incubation and stimulation assay plates. 50 μl of pre-incubation buffer and 100 μl of stimulation buffer was then added to the plates resulting in a final assay test concentration range of 30 μM to 0.0001 μM with a final DMSO concentration of 0.3%.
# Experimental Methods: Cells expressing TRPC5 (HEK-TREx hTRPC5) are plated onto 384 well, black PDL-coated microplates and maintained in TRPC5 growth media the day prior to use for experiments. TRPC5 expression is induced by the application of […] tetracycline at the time of plating. Media is removed from the plates and 10 μl of 4 μM of Fluo-4 AM (mixed with equal volume of Pluronic F-127) in EBSS is added to the cells. Cells are incubated at room temperature, protected from light, for 60-90 minutes. After the incubation period, the dye is removed and replaced with 10 μl of EBSS. Cell, pre-incubation and stimulation plates are loaded onto the FLIPR-II and the assay is initiated. The FLIPR measures a 10 second baseline and then adds 10 μl of 2× compounds (or controls). Changes in fluorescence are monitored for an additional 5 minutes. After the 5 minute pre-incubation, 20 μl of 2× Riluzole (with 1× compound or controls) is added to the cell plate. The final Riluzole stimulation concentration in the assay is 30 μM. After the Riluzole addition, changes in fluorescence are monitored for an additional 5 minutes.
# Test Agent Effect: Test agent modulation of TRPC5 calcium response was determined as follows. After the Riluzole, fluorescence was monitored for a 5 minute period. The maximum relative fluorescene response (minus the control response of 1 μM of the control inhibitor) was captured and exported from the FLIPR. Test agent effect was calculated as % inhibition using the following formula: % inhibition=((RFU Test Agent−Plate Average RFU REF INHIB)/(Plate Average RFU Control−Plate Average RFU REF INHIB))×100
# [2] = molecular target: T1, TRPC5; assay: TRPC5 automated patch clamp assay (Qpatch), current block after rosiglitazone stimulation; format: cell-based; conditions: HEK293 cells overexpressing TRPC5
# How it was run: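 Currents were elicited by 300 ms voltage ramps (−100 to +100 mV, every 10 s, holding −60 mV) in human TRPC5-expressing HEK 293 cells on automated patch clamp, with Rosiglitazone (30 uM) activating the channel. Internal Ca2+ buffered to 1 μM; Hill-equation fitting gave IC50.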
# [3] = Table 10, read-out: TRPCS-FLIPR IC50
# [4] = Table 9, read-out: hTRPCS-FLIPR IC50
# [5] = Table 7, read-out: TRPC5-FLIPR IC50
# [6] = Table 4, rosiglitazone stimulation, 80 mV, read-out: TRPC5_QP_ XC50_80
# [7] = Table 4, rosiglitazone stimulation, 100 mV, read-out: TRPC5_QP_ XC50_100
# [8] = Table 5, rosiglitazone stimulation, 80 mV, read-out: TRPC5_QP_ XC50_80
# [9] = Table 5, rosiglitazone stimulation, 100 mV, read-out: TRPC5_QP_ XC50_100
# [10] = Table 6, read-out: TRPC5-QPatch IC50
# [11] = Table 3, rosiglitazone stimulation, 80 mV, read-out: TRPC5_QP_ XC50_80
# [12] = Table 3, rosiglitazone stimulation, 100 mV, read-out: TRPC5_QP_ XC50_100
structure (smiles),measurement,setting,value
Cn1c(=O)c2c(n1Cc1ccccc1C(F)(F)F)CCN(c1cn[nH]c(=O)c1Cl)C2,IC50,[1]; [3],1000 to 5000 nM
C[C@@H](c1ccc(F)cc1C(F)F)n1nc(C(N)=O)c2c1CCN(c1cn[nH]c(=O)c1Cl)C2,IC50,[1]; [3],0.01 to 1000 nM
CC(F)(F)c1ccccc1CC1(O)CCN(c2cn[nH]c(=O)c2Cl)CC1,IC50,[1]; [4],0.01 to 1000 nM
O=c1[nH]ncc(N2CCN(Cc3ccccc3C(F)(F)F)CC2)c1Cl [drawing 1036],IC50,[1]; [4],1000 to 5000 nM
CC[C@@H](c1cccnc1CC(C)C)C1CCN(c2cn[nH]c(=O)c2Cl)CC1,IC50,[1]; [4],0.01 to 1000 nM
CNC(=O)c1nn(Cc2ccccc2C(F)F)c2c1CN(c1cn[nH]c(=O)c1Cl)CC2,IC50,[1]; [3],0.01 to 1000 nM
CCc1ncccc1[C@H](CC)N1CCN(c2cn[nH]c(=O)c2C#N)CC1,IC50,[1]; [4],1000 to 5000 nM
CCc1ncccc1[C@@H](C(C)C)N1CCN(c2cn[nH]c(=O)c2Cl)CC1,IC50,[1]; [4],0.01 to 1000 nM
COC[C@H](c1ccc(F)cc1C(F)(F)F)n1cnc2c1CCN(c1cn[nH]c(=O)c1Cl)C2,IC50,[1]; [3],0.01 to 1000 nM
O=c1[nH]ncc(N2CCN(S(=O)(=O)Cc3ccccc3C(F)(F)F)CC2)c1Cl,IC50,[1]; [4],1000 to 5000 nM
COC[C@@H](c1ccc(F)cc1C(F)(F)F)n1cnc2c1CCN(c1cn[nH]c(=O)c1Cl)C2,IC50,[1]; [3],1000 to 5000 nM
COc1nn(Cc2ccccc2C(F)F)c2c1CN(c1cn[nH]c(=O)c1Cl)CC2 [drawing 931],IC50,[1]; [5],0.01 to 1000 nM
CCc1ncsc1Cn1nnc2c1CCN(c1cn[nH]c(=O)c1Cl)C2,IC50,[1]; [3],0.01 to 1000 nM
O=c1[nH]ncc(N2CCc3c(ncnc3Oc3ccccc3C(F)(F)F)C2)c1Cl,IC50,[1]; [5],0.01 to 1000 nM
O=c1[nH]ncc(C2=Cc3nnn(Cc4ccccc4C(F)(F)F)c3CC2)c1Cl,IC50,[1]; [3],1000 to 5000 nM
C[C@@H](c1ccc(F)cc1C(F)(F)F)n1[nH]c(=O)c2c1CCN(c1cn[nH]c(=O)c1Cl)C2,IC50,[1]; [3],0.01 to 1000 nM
N#Cc1nn(Cc2ccccc2C(F)F)c2c1CN(c1cn[nH]c(=O)c1Cl)CC2,IC50,[1]; [3],0.01 to 1000 nM
Nc1nn(Cc2ccc(F)cc2C(F)(F)F)c2c1CN(c1cn[nH]c(=O)c1Cl)CC2,IC50,[1]; [3],0.01 to 1000 nM
C[C@@H]1CN([C@@H](C)c2ccc(F)cc2C(F)(F)F)C(=O)CN1c1cn[nH]c(=O)c1Cl,IC50,[1]; [4],0.01 to 1000 nM
O=C1COCCN1Cc1nn(Cc2ccccc2C(F)F)c2c1CN(c1cn[nH]c(=O)c1Cl)CC2,IC50,[1]; [3],0.01 to 1000 nM
CO[C@@H]1CN(c2cn[nH]c(=O)c2Cl)Cc2nnn(Cc3ccccc3C(F)F)c21,IC50,[1]; [3],1000 to 5000 nM
O=c1[nH]ncc(N2CCc3c(nnn3Cc3ccccc3CO)C2)c1Cl,IC50,[1]; [3],1000 to 5000 nM
O=C1CN(c2cn[nH]c(=O)c2Cl)CCN1Cc1ccc(C(F)(F)F)cc1,IC50,[2]; [6],1e-05 to 1 µM
same,IC50,[2]; [7],1e-05 to 1 µM
Cc1ccccc1CN1CCN(c2c(Cl)cn[nH]c2=O)CC1=O,IC50,[2]; [8],10 to 500 µM
same,IC50,[2]; [9],10 to 500 µM
CCc1cc(F)ccc1Cn1cnc2c1CCN(c1cn[nH]c(=O)c1Cl)C2 [drawing 889],IC50,[2]; [10],1e-05 to 1 µM
Cc1cc(F)ccc1CN1CCN(c2c(Cl)c(Br)n[nH]c2=O)CC1=O,IC50,[2]; [6],10 to 500 µM
same,IC50,[2]; [7],10 to 500 µM
O=C1CN(c2cnnc(Br)c2Cl)CCN1Cc1ccc(F)cc1C(F)(F)F,IC50,[2]; [6],10 to 500 µM
same,IC50,[2]; [7],10 to 500 µM
Cc1n[nH]c(=O)c(N2CCN(Cc3ccc(F)cc3C(F)(F)F)C(=O)C2)c1Cl,IC50,[2]; [8],10 to 500 µM
same,IC50,[2]; [9],10 to 500 µM
Cc1cc(F)ccc1CN1CCN(c2cc(C)c(=O)[nH]n2)CC1,IC50,[2]; [6],5 to 10 µM
same,IC50,[2]; [7],5 to 10 µM
O=c1[nH]ncc(N2CCN(Cc3cccc4[nH]ncc34)CC2)c1Cl,IC50,[2]; [6],10 to 500 µM
same,IC50,[2]; [7],10 to 500 µM
O=C1CN(c2cn[nH]c(=O)c2Cl)CCN1Cc1c(F)cccc1F,IC50,[2]; [11],1 to 5 µM
same,IC50,[2]; [12],1 to 5 µM
C[C@@H](c1ccccc1)N1CCN(c2cn[nH]c(=O)c2Cl)CC1,IC50,[2]; [6],5 to 10 µM
same,IC50,[2]; [7],1 to 5 µM
CS(=O)(=O)N1CCN(c2cn[nH]c(=O)c2Br)CC1,IC50,"[2]; rosiglitazone stimulation, 80 mV, read-out: TRPC5_QP XC50_80",10 to 500 µM
same,IC50,"[2]; rosiglitazone stimulation, 100 mV, read-out: TRPC5_QP XC50_100",10 to 500 µM
O=c1[nH]ncc(Cl)c1N1CCN(Cc2ccccc2C(F)(F)F)CC1,IC50,[2]; [6],5 to 10 µM
same,IC50,[2]; [7],5 to 10 µM
COc1cc(F)ccc1CN1CCN(c2cn[nH]c(=O)c2Cl)CC1=O [drawing 772],IC50,[2]; [8],1 to 5 µM
same,IC50,[2]; [9],1 to 5 µM
Cc1ccccc1CN1CCN(c2cn[nH]c(=O)c2Br)CC1C (stereo not drawn) [drawing 651],IC50,[2]; [12],10 to 500 µM
N#Cc1c(N2CCc3c(nnn3Cc3ccccc3C(F)(F)F)C2)cn[nH]c1=O [drawing 891],IC50,[2]; [10],1 to 5 µM
O=C1CN(c2cn[nH]c(=O)c2Cl)CCN1Cc1ccc(-c2ccccc2)cc1,IC50,[2]; [6],10 to 500 µM
same,IC50,[2]; [7],10 to 500 µM
O=C1CN(c2c(Cl)cn[nH]c2=O)CCN1Cc1cccc(C(F)(F)F)c1,IC50,[2]; [8],10 to 500 µM
same,IC50,[2]; [9],10 to 500 µM
Cc1cc(F)ccc1CN1CCN(c2c(C)cn[nH]c2=O)CC1,IC50,[2]; [8],1 to 5 µM
same,IC50,[2]; [9],1 to 5 µM
O=c1[nH]ncc(N2CCN(Cc3cccc4ccccc34)CC2)c1Cl,IC50,[2]; [6],1 to 5 µM
same,IC50,[2]; [7],1 to 5 µM
O=C1CN(c2cn[nH]c(=O)c2Cl)CCN1Cc1ccc(Cl)cc1,IC50,[2]; [8],1 to 5 µM
same,IC50,[2]; [9],5 to 10 µM
CS(=O)(=O)c1ccc(CN2CCN(c3cn[nH]c(=O)c3Cl)CC2=O)cc1,IC50,[2]; [8],10 to 500 µM
same,IC50,[2]; [9],10 to 500 µM
O=C1CN(c2cn[nH]c(=O)c2Cl)CCN1Cc1ccc(Cl)cc1F,IC50,[2]; [11],5 to 10 µM
same,IC50,[2]; [12],5 to 10 µM
